According to US12115178B2, “Acylated active agents and methods of their use for the treatment of autoimmune disorders” (Flagship Pioneering Innovations V, Inc., priority 2018, dated 2024):

Tests used:
Format in all cases: in vitro ADME
[1] = Assay 1. Stability in Simulated Gastric Fluid (SGF); details: SGF pH 1.6 with pepsin, 1 μM, 37° C.
Outline: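 Compound at 1 μM final (from 1 mM DMSO stock) incubated at 37° C in SGF: NaCl medium at pH 1.6 with FaSSIF powder and 0.1 mg/mL pepsin, prepared fresh. Aliquots taken at T0 and regular intervals, quenched with equal volume acetonitrile; LC/MS gives degradation rate.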

[2] = Assay 2. Stability in Simulated Intestinal Fluid (SIF); details: SIF pH 6.7 with pancreatin, 1 μM, 37° C.
Outline: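 Compounds at 1 µM (from 1 mM DMSO stock) were incubated at 37 °C with agitation in simulated intestinal fluid: FaSSIF in pH 6.7 phosphate buffer with pancreatin. Aliquots taken from T0 onward were quenched with acetonitrile and analyzed by LC/MS for degradation rate.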

[3] = Assay 3. In vitro Colonic Material Stability Assay; details: colonic material slurry, anaerobic, 1 or 10 μM
Protocol: Assay 3. In vitro Colonic Material Stability Assay. This assay was used to assess the stability of an acylated active agent in a large intestine. All experiments were performed in an anaerobic chamber containing 90% nitrogen, 5% hydrogen and 5% carbon dioxide. Colonic material was resuspended as a slurry (15% w/v final concentration) in pre-reduced, anaerobically sterilized dilution blanks (Anaerobe Systems AS-908). The colonic material was then inoculated into 96 well plates containing YCFAC media (Anaerobe Systems AS-680) or other suitable media (6.7 μL slurry into 1 mL total media). Compounds or groups of compounds were added to each individual well to reach a final analyte concentration of 1 or 10 μM, and the material was mixed by pipetting. Sample was removed after set timepoints (0, 120, 240, 480, 1440, 2880 minutes after initiation of the assay), quenched with acetonitrile containing internal standard, and analyzed by LC/MS.

| Compound | Assay 1 (SGF) (% Remaining @ 1 hour) [1] | Assay 2 (SIF) (% @ Remaining 4 hours) [2] | Assay 3 (% Remaining at 24 h) [3] |
| --- | --- | --- | --- |
| CCCC(=O)O[C@H]1[C@@H](Oc2ccc(N)cc2C(=O)O)OC[C@@H](OC(=O)CCC)[C@H]1OC(=O)CCC [Compound 21, 5-amino-2-(((2R,3R,4R,5R)-3,4,5-tris(butyryloxy)tetrahydro-2H-pyran-2-yl)oxy)benzoic acid] | C (>75% of the tested compound remaining) | C (>75% of the tested compound remaining) | B (25-75% of the tested compound remaining) |
| O=C(Cc1c[nH]c2ccccc12)Oc1cc(C(=O)O)cc(OC(=O)Cc2c[nH]c3ccccc23)c1OC(=O)Cc1c[nH]c2ccccc12 [Compound 200, 3,4,5-tris({[2-(1H-indol-3-yl)acetyl]oxy})benzoic acid] | C (>75% of the tested compound remaining) | A (<25% of the tested compound remaining) | A (<25% of the tested compound remaining) |
| CCCC(=O)O[C@H]1[C@H](OC(=O)CCC)[C@@H](OC(=O)CCc2c[nH]c3ccccc23)O[C@@H](C)[C@H]1OC(=O)CCC [Compound 87, (2R,3S,4R,5R,6S)-4,5-bis(butanoyloxy)-2-{[3-(1H-indol-3-yl)propanoyl]oxy}-6-methyloxan-3-yl butanoate] | B (25-75% of the tested compound remaining) |  | A (<25% of the tested compound remaining) |
| O=C(CCc1c[nH]c2ccccc12)O[C@H]1OC[C@@H](OC(=O)CCc2c[nH]c3ccccc23)[C@@H](OC(=O)CCc2c[nH]c3ccccc23)[C@H]1OC(=O)CCc1c[nH]c2ccccc12 [Compound 150, (2R,3R,4R,5R)-3,4,5-tris({[3-(1H-indol-3-yl)propanoyl]oxy})oxan-2-yl 3-(1H-indol-3-yl)propanoate] |  | A (<25% of the tested compound remaining) | A (<25% of the tested compound remaining) |
| O=C(CCc1c[nH]c2ccccc12)Oc1ccc2c(c1)oc(=O)c1cc(OC(=O)CCc3c[nH]c4ccccc34)c(OC(=O)CCc3c[nH]c4ccccc34)cc12 [Compound 208, 8,9-bis({[3-(1H-indol-3-yl)propanoyl]oxy})-6-oxo-6H-benzo[c]chromen-3-yl 3-(1H-indol-3-yl)propanoate] |  | B (25-75% of the tested compound remaining) | B (25-75% of the tested compound remaining) |
| CCC(=O)OC[C@H]1O[C@@H](OC)[C@H](OC(=O)CC)[C@@H](OC(=O)CC)[C@@H]1OC(=O)CC [Compound 59, [(2R,3R,4S,5R,6R)-6-methoxy-3,4,5-tris(propanoyloxy)oxan-2-yl]methyl propanoate] |  | A (<25% of the tested compound remaining) | A (<25% of the tested compound remaining) |
| CCCC(=O)OC[C@H]1O[C@@H](Oc2ccc(N)cc2C(=O)O)[C@H](OC(=O)CCC)[C@@H](OC(=O)CCC)[C@@H]1OC(=O)CCC [Compound 36, 5-amino-2-(((2S,3R,4S,5R,6R)-3,4,5-tris(butyryloxy)-6-((butyryloxy)methyl)tetrahydro-2H-pyran-2-yl)oxy)benzoic acid] |  | C (>75% of the tested compound remaining) | C (>75% of the tested compound remaining) |
| CCCC(=O)O[C@@H]1[C@@H](OC(=O)CCC)[C@H](Oc2ccc(N)cc2C(=O)O)OC[C@H]1OC(=O)CCC [Compound 183, 5-amino-2-[(2S,3R,4S,5R)-3,4,5-tri(butanoyloxy)tetrahydropyran-2-yl]oxy-benzoic acid] |  | B (25-75% of the tested compound remaining) | B (25-75% of the tested compound remaining) |
| CCCC(=O)O[C@@H]1[C@@H](OC(=O)CCC)[C@H](C)O[C@H](OC(=O)CCc2c[nH]c3ccccc23)[C@@H]1OC(=O)CCC [Compound 86, (2R,3R,4R,5S,6S)-4,5-bis(butanoyloxy)-2-{[3-(1H-indol-3-yl)propanoyl]oxy}-6-methyloxan-3-yl butanoate] | B (25-75% of the tested compound remaining) |  | A (<25% of the tested compound remaining) |
| CCC(=O)Oc1cc(OC(=O)CC)c2c(=O)c(OC(=O)CC)c(-c3ccc(OC(=O)CC)c(OC(=O)CC)c3)oc2c1 [Compound 14, [4-[4-oxo-3,5,7-tri(propanoyloxy)chromen-2-yl]-2-propanoyloxy-phenyl] propanoate] |  | A (<25% of the tested compound remaining) | C (>75% of the tested compound remaining) |
| CCC(=O)O[C@@H]1[C@@H](OC(=O)CC)[C@H](OC(=O)/C=C/c2c[nH]c3ccccc23)OC[C@@H]1OC(=O)CC [Compound 100, (2S,3R,4S,5S)-3,4,5-tris(propanoyloxy)oxan-2-yl (2E)-3-(1H-indol-3-yl)prop-2-enoate] | B (25-75% of the tested compound remaining) |  | A (<25% of the tested compound remaining) |
| CCCC(=O)O[C@@H]1[C@@H](OC(=O)CCC)[C@H](Oc2ccc(N)cc2C(=O)O)OC[C@H]1O [Compound 32, 5-amino-2-(((2S,3R,4S,5R)-3,4-bis(butyryloxy)-5-hydroxytetrahydro-2H-pyran-2-yl)oxy)benzoic acid] |  | B (25-75% of the tested compound remaining) | C (>75% of the tested compound remaining) |
| CCCC(=O)Oc1ccc(N)cc1C(=O)O [Compound 16, 5-amino-2-butanoyloxy-benzoic acid] |  | C (>75% of the tested compound remaining) | C (>75% of the tested compound remaining) |
| CCCC(=O)O[C@@H]1[C@H](OC(=O)CCC)[C@H](C)OC(Oc2ccccc2C(=O)O)[C@H]1OC(=O)CCC (stereo partly drawn) [Compound 29, 2-(((3S,4R,5R,6S)-3,4,5-tris(butyryloxy)-6-methyltetrahydro-2H-pyran-2-yl)oxy)benzoic acid] | C (>75% of the tested compound remaining) |  | C (>75% of the tested compound remaining) |
| CCCC(=O)Oc1cc(OC(=O)CCC)c2c(c1)O[C@H](c1cc(OC(=O)CCC)c(OC(=O)CCC)c(OC(=O)CCC)c1)[C@H](OC(=O)c1cc(OC(=O)CCC)c(OC(=O)CCC)c(OC(=O)CCC)c1)C2 [Compound 1, [(2R,3R)-5,7-di(butanoyloxy)-2-[3,4,5-tri(butanoyloxy)phenyl]chroman-3-yl] 3,4,5-tri(butanoyloxy)benzoate] |  | C (>75% of the tested compound remaining) | B (25-75% of the tested compound remaining) |
| CCC(=O)OC[C@H]1O[C@H](OC(=O)/C=C/c2c[nH]c3ccccc23)[C@H](OC(=O)CC)[C@@H](OC(=O)CC)[C@@H]1OC(=O)CC [Compound 99, (2R,3R,4S,5R,6R)-3,4,5-tris(propanoyloxy)-6-[(propanoyloxy)methyl]oxan-2-yl (2E)-3-(1H-indol-3-yl)prop-2-enoate] | B (25-75% of the tested compound remaining) |  | A (<25% of the tested compound remaining) |
| CCCC(=O)OC[C@H]1O[C@H](OC)[C@H](OC(=O)CCC)[C@@H](OC(=O)CCC)[C@H]1OC(=O)CCC [Compound 56, [(2R,3S,4S,5R,6S)-3,4,5-tris(butanoyloxy)-6-methoxyoxan-2-yl]methyl butanoate] |  | A (<25% of the tested compound remaining) | A (<25% of the tested compound remaining) |
| CCCC(=O)O[C@@H]1[C@@H](OC(=O)CCC)[C@H](C)O[C@H](Oc2ccccc2C(=O)O)[C@@H]1OC(=O)CCC [Compound 38, 2-(((2R,3R,4R,5S,6S)-3,4,5-tris(butyryloxy)-6-methyltetrahydro-2H-pyran-2-yl)oxy)benzoic acid] |  | C (>75% of the tested compound remaining) | C (>75% of the tested compound remaining) |
| CCCC(=O)O[C@@H]1[C@@H](OC(=O)CCC)[C@H](OC(=O)CCc2c[nH]c3ccccc23)OC[C@H]1OC(=O)CCC [Compound 97, (2S,3R,4S,5R)-4,5-bis(butanoyloxy)-2-{[3-(1H-indol-3-yl)propanoyl]oxy}oxan-3-yl butanoate] | B (25-75% of the tested compound remaining) |  | A (<25% of the tested compound remaining) |
| CCCC(=O)OC[C@H]1O[C@@H](OC)[C@H](OC(=O)CCC)[C@@H](OC(=O)CCC)[C@@H]1OC(=O)CCC [Compound 58, [(2R,3R,4S,5R,6R)-3,4,5-tris(butanoyloxy)-6-methoxyoxan-2-yl]methyl butanoate] |  | A (<25% of the tested compound remaining) | A (<25% of the tested compound remaining) |
| CCCC(=O)O[C@@H]1[C@@H](OC(=O)CCC)[C@@H](Oc2ccc(N)cc2C(=O)O)OC[C@H]1OC(=O)CCC [Compound 18, 5-amino-2-[(2R,3R,4S,5R)-3,4,5-tri(butanoyloxy)tetrahydropyran-2-yl]oxy-benzoic acid] | C (>75% of the tested compound remaining) |  | C (>75% of the tested compound remaining) |
